How the values were obtained:
[1] = Inhibitory activity against Opioid receptor delta 1 expressed in HEK293 cells; type: cell-based, Homo sapiens
[2] = Inhibitory activity against Opioid receptor kappa 1 expressed in HEK293 cells; type: cell-based, Homo sapiens
[3] = Inhibitory activity against Opioid receptor mu 1 expressed in HEK293 cells; type: cell-based, Homo sapiens
[4] = biological target: Nociceptin receptor (Homo sapiens, UniProt P41146); assay: Inhibitory activity against Opioid receptor like 1 expressed in HEK293 cells; type: cell-based
Chain of Nociceptin receptor (P41146 whole entry): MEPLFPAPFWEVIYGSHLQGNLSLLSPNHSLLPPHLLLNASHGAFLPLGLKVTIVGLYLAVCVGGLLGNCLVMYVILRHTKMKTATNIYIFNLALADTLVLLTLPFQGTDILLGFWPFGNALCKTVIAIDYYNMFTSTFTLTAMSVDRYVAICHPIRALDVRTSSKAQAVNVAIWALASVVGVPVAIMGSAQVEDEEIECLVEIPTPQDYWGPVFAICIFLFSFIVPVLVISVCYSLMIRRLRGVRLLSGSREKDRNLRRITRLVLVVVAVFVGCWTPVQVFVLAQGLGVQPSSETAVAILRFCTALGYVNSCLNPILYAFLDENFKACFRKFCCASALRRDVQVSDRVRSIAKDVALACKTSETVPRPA

Row | Structure (SMILES) | IC50 [1] | IC50 [2] | IC50 [3] | IC50 [4]
1 | CNCC[C@@H](Oc1ccc(O)cc1C)c1ccccc1 | 1.49 µM | 0.088 µM | 0.164 µM | > 5 µM
2 | CNCC[C@@H](Oc1ccccc1C)c1ccccc1 [ATOMOXETINE] | > 5 µM | 4.38 µM | 4.19 µM | > 5 µM

From ChEMBL document CHEMBL1137140, “Synthesis and biological evaluation of the major metabolite of atomoxetine: elucidation of a partial kappa-opioid agonist effect” (Bioorg Med Chem Lett, 2004)
